Here are results for 1 compound from US11421145B2, “Oil recovery methods using a formulation containing an unsaturated zwitterionic surfactant and a polymer” (King Fahd University of Petroleum and Minerals, priority 2019, dated 2022).

The data set is described as follows: Short-term thermal stability by thermogravimetric analysis (TGA). Type of data set: physicochemical. As to the method:
The short-term thermal stability of the unsaturated surfactant was assessed using thermogravimetric analysis (TGA). The thermal stability for a longer period (2 weeks) was determined by FTIR and NMR. The synthesized unsaturated surfactant was dried and heated at 10° C./min in an SDT-Q600 instrument (TA Instruments) from room temperature to 600° C. under nitrogen atmosphere. The thermal stability for a longer period was determined by aging 1 wt % aqueous solution of the unsaturated surfactant at 90° C. for 15 days. FTIR, ^13C NMR, and ^1H NMR were used to identify the structural changes in the unsaturated surfactant after aging. A Nicolet 6700 spectrometer was used for FTIR analysis of the unsaturated surfactant, while a JEOL 500 MHz spectrometer was used for obtaining the NMR spectra.
Solubility and compatibility of the surfactant in the reservoir and injection brine are the primary considerations for further evaluation of the unsaturated surfactant for EOR application. If the surfactant is not soluble in the seawater and formation brine, it can be rejected at the initial stage. […] After the compatibility test with SW and FW, the short-term thermal stability of the synthesized unsaturated surfactant was evaluated using TGA analysis. […] Only 3% weight loss was observed up to 200° C., which was mainly associated with solvent and water evaporation. […]

With `CCCCCCCC/C=C\CCCCCCCC(=O)NCCC[N+](C)(C)CCCS(=O)(=O)[O-]` [unsaturated surfactant, 3-(N-oleamidopropyl-N,N-dimethylammonium) propane sulfonate], the “short-range thermal stability (TGA)” value is “excellent short-range thermal stability”. Further, the “weight loss (TGA)” value (up to 200° C., heating rate 10° C. min^−1, nitrogen) is listed as 3%.
